Data: the supplement of paper PMC10307832

Columns and labels:
Experiment in all cases: relative viability (nuclei count vs DMSO), 5 days (fraction); higher = more cells survive
[1] = compound: CC1=C(C=CC(=C1)[N+](=O)[O-])NS(=O)(=O)C2=C(C=CC(=C2)Cl)Cl [FH535]
Method in brief: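 After an overnight hold at 37 °C, lung cancer cell lines in 1536-well plates were pinned with five library-drug doses (not always all listed), each √10 from the next, on vehicle-anchored plates. The cells stayed 5 days without fresh medium, then a one-step fix, permeabilisation and Hoechst stain preceded 4× imaging and MetaXpress nuclear counts. A plate passed only with control CV under 25% and at least one doubling. Viability is the median, over plates, of treated-well nuclei relative to vehicle-well nuclei.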

[2] = compound: CC1=C(C=CC(=C1)[N+](=O)[O-])NS(=O)(=O)C2=C(C=CC(=C2)Cl)Cl [FH535] + CC(C)C[C@H](NC(=O)[C@H](Cc1ccccc1)NC(=O)c1cnccn1)B(O)O [Bortezomib] (partner 0.002 µM)
Method in brief: (§1)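 Relative viability is defined as nuclei in treated wells over nuclei in vehicle wells. Duplicate plates were run and medians reported. Lung cancer cell lines in 1536-well plates were dosed by pin tool one day after seeding, with one drug or with a fixed anchor-drug dose plus five library-drug doses (not always all listed) in √10 steps, and nuclei were counted after 5 days.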

[3] = compound: CC1=C(C=CC(=C1)[N+](=O)[O-])NS(=O)(=O)C2=C(C=CC(=C2)Cl)Cl [FH535] + CS(=O)(=O)N1CCN(Cc2cc3nc(-c4cccc5[nH]ncc45)nc(N4CCOCC4)c3s2)CC1 [Pictilisib] (partner 1 µM)
Method in brief: as §1

[4] = compound: CC1=C(C=CC(=C1)[N+](=O)[O-])NS(=O)(=O)C2=C(C=CC(=C2)Cl)Cl [FH535] + CC1(C)CCC(c2ccc(Cl)cc2)=C(CN2CCN(c3ccc(C(=O)NS(=O)(=O)c4ccc(N[C@H](CCN5CCOCC5)CSc5ccccc5)c(S(=O)(=O)C(F)(F)F)c4)cc3)CC2)C1 [Navitoclax] (partner 0.5 µM)
Method in brief: as §1

[5] = compound: CC1=C(C=CC(=C1)[N+](=O)[O-])NS(=O)(=O)C2=C(C=CC(=C2)Cl)Cl [FH535] + COc1cc2c(Oc3ccc(NC(=O)C4(C(=O)Nc5ccc(F)cc5)CC4)cc3F)ccnc2cc1OCCCN1CCOCC1 [Foretinib] (partner 0.25 µM)
Method in brief: as §1

[6] = compound: CC1=C(C=CC(=C1)[N+](=O)[O-])NS(=O)(=O)C2=C(C=CC(=C2)Cl)Cl [FH535] + O=C(c1cc(Cc2n[nH]c(=O)c3ccccc23)ccc1F)N1CCN(C(=O)C2CC2)CC1 [Olaparib] (partner 8 µM)
Method in brief: as §1

[7] = compound: CC1=C(C=CC(=C1)[N+](=O)[O-])NS(=O)(=O)C2=C(C=CC(=C2)Cl)Cl [FH535] + CS(=O)(=O)CCNCc1ccc(-c2ccc3ncnc(Nc4ccc(OCc5cccc(F)c5)c(Cl)c4)c3c2)o1 [Lapatinib] (partner 2 µM)
Method in brief: as §1

[8] = compound: CC1=C(C=CC(=C1)[N+](=O)[O-])NS(=O)(=O)C2=C(C=CC(=C2)Cl)Cl [FH535] + C[C@@H](Oc1cc(-c2cnn(C3CCNCC3)c2)cnc1N)c1c(Cl)ccc(F)c1Cl [Crizotinib] (partner 1 µM)
Method in brief: as §1

[9] = compound: CC1=C(C=CC(=C1)[N+](=O)[O-])NS(=O)(=O)C2=C(C=CC(=C2)Cl)Cl [FH535] + C[C@]1(O)C[C@@H](c2nc(-c3ccc4ccc(-c5ccccc5)nc4c3)c3c(N)nccn32)C1 [Linsitinib] (partner 1 µM)
Method in brief: as §1

[10] = compound: CC1=C(C=CC(=C1)[N+](=O)[O-])NS(=O)(=O)C2=C(C=CC(=C2)Cl)Cl [FH535] + Cc1nc(NC(=O)N2CCC[C@H]2C(N)=O)sc1-c1ccnc(C(C)(C)C(F)(F)F)c1 [Alpelisib] (partner 2 µM)
Method in brief: as §1

[11] = compound: CC1=C(C=CC(=C1)[N+](=O)[O-])NS(=O)(=O)C2=C(C=CC(=C2)Cl)Cl [FH535] + O=C(CCCCCCC(=O)Nc1ccccc1)NO [Vorinostat] (partner 1 µM)
Method in brief: as §1

[12] = compound: CC1=C(C=CC(=C1)[N+](=O)[O-])NS(=O)(=O)C2=C(C=CC(=C2)Cl)Cl [FH535] + Nc1nc2[nH]cc(CCc3ccc(C(=O)N[C@@H](CCC(=O)O)C(=O)O)cc3)c2c(=O)[nH]1 [Pemetrexed] (partner 0.2 µM)
Method in brief: as §1

[13] = compound: CC1=C(C=CC(=C1)[N+](=O)[O-])NS(=O)(=O)C2=C(C=CC(=C2)Cl)Cl [FH535] + Cc1cc(Nc2cc(N3CCN(C)CC3)nc(Sc3ccc(NC(=O)C4CC4)cc3)n2)n[nH]1 [Tozasertib] (partner 0.1 µM)
Method in brief: as §1

[14] = compound: CC1=C(C=CC(=C1)[N+](=O)[O-])NS(=O)(=O)C2=C(C=CC(=C2)Cl)Cl [FH535] + Nc1ncn([C@H]2C[C@H](O)[C@@H](CO)O2)c(=O)n1 [Decitabine] (partner 2 µM)
Method in brief: as §1

[15] = compound: CC1=C(C=CC(=C1)[N+](=O)[O-])NS(=O)(=O)C2=C(C=CC(=C2)Cl)Cl [FH535] + CC(=O)Nc1cccc(-n2c(=O)n(C3CC3)c(=O)c3c(Nc4ccc(I)cc4F)n(C)c(=O)c(C)c32)c1 [Trametinib] (partner 0.02 µM)
Method in brief: as §1

[16] = compound: CC1=C(C=CC(=C1)[N+](=O)[O-])NS(=O)(=O)C2=C(C=CC(=C2)Cl)Cl [FH535] + CC(=O)c1c(C)c2cnc(Nc3ccc(N4CCNCC4)cn3)nc2n(C2CCCC2)c1=O [Palbociclib] (partner 0.5 µM)
Method in brief: as §1

[17] = compound: CC1=C(C=CC(=C1)[N+](=O)[O-])NS(=O)(=O)C2=C(C=CC(=C2)Cl)Cl [FH535] + NC(=O)Nc1cc(-c2cccc(F)c2)sc1C(=O)N[C@H]1CCCNC1 [AZD7762] (partner 0.2 µM)
Method in brief: as §1

[18] = compound: CC1=C(C=CC(=C1)[N+](=O)[O-])NS(=O)(=O)C2=C(C=CC(=C2)Cl)Cl [FH535] + COc1cccc2cc(-c3nc([C@H]4CC[C@H](C(=O)O)CC4)n4ncnc(N)c34)[nH]c12 [OSI-027] (partner 0.5 µM)
Method in brief: as §1

With Calu-6 as the cell line, how does the relative viability ([1]; 0.04 µM) read?
Its relative viability is 0.938.

And the relative viability ([1]; 0.1265 µM)?
The relative viability was 1.05.

What about the relative viability ([1]; 0.4 µM) of the same cell line?
Its relative viability is 0.956.

And the relative viability ([1]; 1.265 µM)?
Its relative viability is 0.792.

What about the relative viability ([2]; first compound 0.04 µM) of the same cell line?
Its relative viability is 0.908.

And the relative viability ([2]; first compound 0.1265 µM)?
Its relative viability is 1.03.

What about the relative viability ([2]; first compound 0.4 µM) of the same cell line?
Its relative viability is 0.997.

What about the relative viability ([2]; first compound 1.265 µM) of the same cell line?
The relative viability was 0.772.

And the relative viability ([3]; first compound 0.04 µM)?
The relative viability was 1.02.

And the relative viability ([3]; first compound 0.1265 µM)?
Its relative viability is 0.911.

And the relative viability ([3]; first compound 0.4 µM)?
The relative viability was 0.848.

And the relative viability ([3]; first compound 1.265 µM)?
The relative viability was 0.748.

And the relative viability ([4]; first compound 0.04 µM)?
Its relative viability is 0.912.

And the relative viability ([4]; first compound 0.1265 µM)?
Its relative viability is 0.849.

And the relative viability ([4]; first compound 0.4 µM)?
The relative viability was 0.772.

And the relative viability ([4]; first compound 1.265 µM)?
The relative viability was 0.547.

And the relative viability ([5]; first compound 0.04 µM)?
The relative viability was 0.815.

What about the relative viability ([5]; first compound 0.1265 µM) of the same cell line?
Its relative viability is 0.83.

What about the relative viability ([5]; first compound 0.4 µM) of the same cell line?
The relative viability was 0.877.

And the relative viability ([5]; first compound 1.265 µM)?
The relative viability was 0.777.

And the relative viability ([6]; first compound 0.04 µM)?
Its relative viability is 0.583.

What about the relative viability ([6]; first compound 0.1265 µM) of the same cell line?
The relative viability was 0.594.

What about the relative viability ([6]; first compound 0.4 µM) of the same cell line?
The relative viability was 0.532.

What about the relative viability ([6]; first compound 1.265 µM) of the same cell line?
The relative viability was 0.507.

And the relative viability ([7]; first compound 0.04 µM)?
Its relative viability is 1.12.

And the relative viability ([7]; first compound 0.1265 µM)?
Its relative viability is 1.14.

And the relative viability ([7]; first compound 0.4 µM)?
Its relative viability is 1.

What about the relative viability ([7]; first compound 1.265 µM) of the same cell line?
The relative viability was 0.76.

And the relative viability ([8]; first compound 0.04 µM)?
Its relative viability is 0.797.

And the relative viability ([8]; first compound 0.1265 µM)?
The relative viability was 0.814.

What about the relative viability ([8]; first compound 0.4 µM) of the same cell line?
Its relative viability is 0.783.

What about the relative viability ([8]; first compound 1.265 µM) of the same cell line?
Its relative viability is 0.601.

What about the relative viability ([9]; first compound 0.04 µM) of the same cell line?
The relative viability was 0.972.

And the relative viability ([9]; first compound 0.1265 µM)?
Its relative viability is 1.04.

And the relative viability ([9]; first compound 0.4 µM)?
Its relative viability is 1.

And the relative viability ([9]; first compound 1.265 µM)?
Its relative viability is 0.814.

And the relative viability ([10]; first compound 0.04 µM)?
Its relative viability is 1.07.

What about the relative viability ([10]; first compound 0.1265 µM) of the same cell line?
Its relative viability is 0.982.

What about the relative viability ([10]; first compound 0.4 µM) of the same cell line?
Its relative viability is 0.866.

And the relative viability ([10]; first compound 1.265 µM)?
Its relative viability is 0.87.

With NCI-H1648 as the cell line, how does the relative viability ([1]; 0.04 µM) read?
Its relative viability is 0.645.

What about the relative viability ([1]; 0.1265 µM) of the same cell line?
The relative viability was 0.828.

And the relative viability ([1]; 0.4 µM)?
The relative viability was 0.837.

What about the relative viability ([1]; 1.265 µM) of the same cell line?
Its relative viability is 0.641.

What about the relative viability ([11]; first compound 0.1265 µM) of the same cell line?
Its relative viability is 0.595.

What about the relative viability ([11]; first compound 0.4 µM) of the same cell line?
Its relative viability is 0.709.

What about the relative viability ([11]; first compound 1.265 µM) of the same cell line?
Its relative viability is 0.473.

What about the relative viability ([12]; first compound 0.1265 µM) of the same cell line?
The relative viability was 0.655.

And the relative viability ([12]; first compound 0.4 µM)?
The relative viability was 0.532.

And the relative viability ([12]; first compound 1.265 µM)?
The relative viability was 0.635.

What about the relative viability ([6]; first compound 0.1265 µM) of the same cell line?
Its relative viability is 0.888.

And the relative viability ([6]; first compound 0.4 µM)?
Its relative viability is 1.08.

What about the relative viability ([6]; first compound 1.265 µM) of the same cell line?
Its relative viability is 0.383.

What about the relative viability ([13]; first compound 0.04 µM) of the same cell line?
Its relative viability is 0.397.

And the relative viability ([13]; first compound 0.4 µM)?
Its relative viability is 0.603.

And the relative viability ([13]; first compound 1.265 µM)?
Its relative viability is 0.281.

What about the relative viability ([14]; first compound 0.1265 µM) of the same cell line?
Its relative viability is 0.585.

And the relative viability ([14]; first compound 0.4 µM)?
The relative viability was 0.478.

And the relative viability ([14]; first compound 1.265 µM)?
Its relative viability is 0.398.

And the relative viability ([15]; first compound 0.1265 µM)?
The relative viability was 0.441.

And the relative viability ([15]; first compound 0.4 µM)?
The relative viability was 0.544.

And the relative viability ([15]; first compound 1.265 µM)?
Its relative viability is 0.352.

And the relative viability ([16]; first compound 0.1265 µM)?
The relative viability was 0.219.

What about the relative viability ([16]; first compound 0.4 µM) of the same cell line?
The relative viability was 0.273.

What about the relative viability ([16]; first compound 1.265 µM) of the same cell line?
The relative viability was 0.225.

What about the relative viability ([17]; first compound 0.1265 µM) of the same cell line?
The relative viability was 0.654.

What about the relative viability ([17]; first compound 0.4 µM) of the same cell line?
The relative viability was 0.612.

And the relative viability ([17]; first compound 1.265 µM)?
The relative viability was 0.625.

And the relative viability ([18]; first compound 0.04 µM)?
The relative viability was 0.243.

What about the relative viability ([18]; first compound 0.4 µM) of the same cell line?
Its relative viability is 0.254.

And the relative viability ([18]; first compound 1.265 µM)?
The relative viability was 0.243.
